Test system: IL-1β release from THP-1 cells
Test: IL-1β release assay in differentiated THP-1 cells stimulated with BzATP (ELISA)
Type: cell-based
Details: Homo sapiens; for inhibition at 0.3 µM: 0.3 uM compound, BzATP 250 uM, read-out: IL-1β % Inhib. @ 0.3 uM.; for IC50: released IL-1β as in Example 9, four parameter logistic fit, read-out: IL-Iβ IC50
Protocol: THP-1 cells (ATCC Cat #285-IF-100) are plated in 96 well plates at a concentration of 200,000 cells per well and allowed to differentiate in RPMI-1640 media (ATCC Cat #30-2001) containing 10% FBS, 100 IU/mL penicillin, 100 ug/mL streptomycin, 100 ng/mL LPS and 100 ng/mL IFN-γ for 16 hours. Following differentiation, the cells are treated for an additional 2 hours in RPMI-1640 media containing 100 IU/mL penicillin, 100 ug/mL streptomycin and fresh LPS at 100 ng/mL. The cells are then pretreated for 30 minutes with the compound of interest at the appropriate concentration in RPMI media containing 100 IU/mL penicillin, 100 ug/mL streptomycin. Following the pretreatment 2′,3′-O-(4-benzoylbenzoyl)-adenosine 5′-triphosphate (Sigma Aldrich Cat # B6396) is added to a final concentration of 250 uM and the cells are incubated for an additional 45 minutes. 30 uL of cell supernatant is then collected and IL-113 levels determined via ELISA (R&D systems Cat. # HSLB50) according to manufacturer's recommendations using the Tecan Safire plate reader. Background adjusted IL-1β levels of drug treated and non-treated cells are used to calculate the percent inhibition. […]
The compounds set forth in Table 1 were tested for activity in a cellular model as described herein. Specifically, cells were pretreated with differing amounts of the compound under test and released IL-1β determined as in Example 9, above. Measurements were made and IC50 values, presented in Table 2, below, were determined by fitting the data to a four parameter logistic equation using GraphPad Prism software (GraphPad Software, Inc). The equation may be expressed by the following formula: Y=Bottom+(Top−Bottom)/(1+10^((LogEC50−X)*HillSlope)) Where X is the logarithm of concentration, Y is the response and Y starts at Bottom and goes to Top with a sigmoid shape.

Row | SMILES | IC50 [nM] | inhibition at 0.3 µM [%]
1 | O=C(NCC1CCCCC1)c1ncnc2c1CCN(Cc1ccccn1)C2 [Compound 2010] |  | 0 to 25
2 | O=C(NCC1CCCCCC1)c1cccc2c1CCN(C(CO)CO)C2=O [Compound 2037] | 138 | 51 to 75
3 | CC(C(N)=O)n1ccc2c(C(=O)NCC3CCCCC3)cccc2c1=O (stereo not shown) [Compound 2049] | 122 | > 76
4 | CS(=O)(=O)c1ccc(CN2CCc3c(ncnc3C(=O)NCC3CCCCC3)C2)cc1 [Compound 2014] |  | 0 to 25
5 | O=C(NCC1CCCCC1)c1ncnc2c1CCN(Cc1cccnc1)C2 [Compound 2006] |  | 0 to 25
6 | O=C(NCC12CC3CC(CC(C3)C1)C2)c1ncnc2c1CCN(Cc1ccccc1Cl)C2 [Compound 2025] |  | 26 to 50
7 | CC1(C)OCC(Cn2ccc3c(C(=O)NCC4CCCCCC4)cccc3c2=O)O1 (stereo not shown) [Compound 2038] | 606 | 0 to 25
8 | O=C(NCC1CCCCC1)c1cccc2c(=O)n(CCO)ccc12 [Compound 2052] | 694 | 0 to 25
9 | O=C(NCC1(O)CCCCCC1)c1ncnc2c1CCN(Cc1ccccc1)C2 [Compound 2016] |  | 0 to 25
10 | C[C@@H](C(N)=O)n1ccc2c(C(=O)NCc3ccc(Cl)c(C(F)(F)F)c3)cccc2c1=O [Compound 2059, 2-((S)-1-Carbamoyl-ethyl)-1-oxo-1,2-dihydro-isoquinoline-5-carboxylic acid 4-chloro-3-trifluoromethyl-benzylamide] | 77.4 | > 76
11 | O=C(NCC1CCCCC1)c1ncnc2c1CCN(Cc1ccccc1)C2 [Compound 2004] |  | 0 to 25
12 | Cn1ccc2c(C(=O)NCC3(O)CCCC(C)(C)C3)cccc2c1=O (stereo not shown) [Compound 2045] | > 1000 | 0 to 25
13 | O=C(NCC1(O)CCCCCC1)c1cccc2c(=O)n(Cc3ccc(F)cc3)ccc12 [Compound 2031, 2-(4-Fluoro-benzyl)-1-oxo-1,2-dihydro-isoquinoline-5-carboxylic acid (1-hydroxy-cycloheptylmethyl)-amide] | 42 | > 76
14 | O=C(NCC1CCCCC1)c1ncnc2c1CCNC2 [Compound 2002, 5,6,7,8-Tetrahydro-pyrido[3,4-d]pyrimidine-4-carboxylic acid cyclohexylmethyl-amide] |  | 0 to 25

The next lines start with results.

Row | IC50 [nM] | SMILES | inhibition at 0.3 µM [%]
15 | > 1000 | C[C@@H](NC(=O)c1cccc2c(=O)n([C@@H](C)C(N)=O)ccc12)c1ccc(Cl)cc1 [Compound 2067] | 0 to 25
16 | 59.4 | O=C(NCc1ccc(Cl)c(C(F)(F)F)c1)c1cccc2c(=O)n(C3CC3)ccc12 [Compound 2078] | > 76
17 | 149 | Cc1ccc2c(c1C(=O)NCc1ccc(C(F)(F)F)c(F)c1)CCN(C(=O)C1CCC1)C2 [Compound 2081] | > 76
18 | 0.44 | C[C@@H](C(N)=O)n1ccc2c(C(=O)NCC34CC5CC(CC(C5)C3)C4)cccc2c1=O [Compound 2065, 2-((S)-1-Carbamoyl-ethyl)-1-oxo-1,2-dihydro-isoquinoline-5-carboxylic acid (adamantan-1-ylmethyl)-amide] | > 76
19 | 38.2 | C[C@H](C(N)=O)n1ccc2c(C(=O)NCc3ccc(Cl)c(Cl)c3)cccc2c1=O [Compound 2060] | > 76
20 | 212 | C[C@H](CO)n1ccc2c(C(=O)NCc3ccc(C(F)(F)F)cc3)cccc2c1=O [Compound 2068] | 51 to 75
21 | 119 | O=C(NCc1ccc(C(F)(F)F)c(F)c1)c1cccc2c(=O)n(C3CC3)ccc12 [Compound 2076] | > 76
22 | 6.91 | C[C@H](CO)n1ccc2c(C(=O)NCC3CCCCCC3)cccc2c1=O [Compound 2069, 2-((R)-2-Hydroxy-1-methyl-ethyl)-1-oxo-1,2-dihydro-isoquinoline-5-carboxylic acid cycloheptylmethyl-amide] | > 76

From patent US8779144B2, “Bicycloheteroaryl compounds as P2X7 modulators and uses thereof” (Evotec (US) Inc., priority 2006, dated 2014)
